Experimental data taken from US20240246942A1, “KINASE INHIBITORS FOR THE TREATMENT OF NEURODEGENERATIVE DISEASES” (priority 2020, published 2024).

Assays:
Experiment in all cases: biochemical
[1] = target: T1, panel of 374 wild-type kinases (Homo sapiens, UniProt O43353); details: read-out: % Enzyme Activity (relative to DMSO controls), kinase RIPK2
T1 construct: purchased Reaction Biology Corporation

[2] = target: T2, panel of 374 wild-type kinases (Homo sapiens, UniProt O60674); details: read-out: % Enzyme Activity (relative to DMSO controls), JAK2
T2 construct: purchased Reaction Biology Corporation
T2 sequence (O60674 whole entry): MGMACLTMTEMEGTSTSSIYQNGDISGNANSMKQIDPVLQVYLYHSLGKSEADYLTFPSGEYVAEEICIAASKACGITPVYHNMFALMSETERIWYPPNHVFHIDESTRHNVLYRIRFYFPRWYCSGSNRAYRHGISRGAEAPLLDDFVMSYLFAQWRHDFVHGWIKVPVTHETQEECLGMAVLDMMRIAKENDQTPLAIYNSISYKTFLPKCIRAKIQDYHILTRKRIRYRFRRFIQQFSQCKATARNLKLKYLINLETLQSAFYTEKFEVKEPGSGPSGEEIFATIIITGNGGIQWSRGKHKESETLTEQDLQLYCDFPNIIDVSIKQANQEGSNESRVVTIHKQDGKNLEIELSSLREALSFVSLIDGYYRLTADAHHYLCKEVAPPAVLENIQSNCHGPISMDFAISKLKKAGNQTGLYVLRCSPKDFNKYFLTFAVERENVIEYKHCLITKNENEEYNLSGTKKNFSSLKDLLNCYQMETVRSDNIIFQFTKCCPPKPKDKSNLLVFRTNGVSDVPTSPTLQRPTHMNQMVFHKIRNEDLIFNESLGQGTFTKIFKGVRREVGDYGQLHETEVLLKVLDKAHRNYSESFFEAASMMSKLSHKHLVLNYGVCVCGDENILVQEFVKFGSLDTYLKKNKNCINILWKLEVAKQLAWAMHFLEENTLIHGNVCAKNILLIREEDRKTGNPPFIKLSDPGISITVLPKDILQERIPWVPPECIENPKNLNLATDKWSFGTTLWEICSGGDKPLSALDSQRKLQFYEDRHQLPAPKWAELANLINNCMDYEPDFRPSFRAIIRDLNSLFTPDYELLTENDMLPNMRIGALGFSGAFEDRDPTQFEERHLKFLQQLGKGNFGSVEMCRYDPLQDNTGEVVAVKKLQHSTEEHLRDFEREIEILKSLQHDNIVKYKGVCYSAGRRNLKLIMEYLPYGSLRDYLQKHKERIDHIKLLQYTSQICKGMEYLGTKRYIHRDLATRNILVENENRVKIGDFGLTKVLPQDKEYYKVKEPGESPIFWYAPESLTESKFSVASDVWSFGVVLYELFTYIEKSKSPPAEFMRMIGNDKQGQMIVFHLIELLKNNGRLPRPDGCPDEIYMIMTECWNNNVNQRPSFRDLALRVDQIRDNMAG

[3] = target: T3, panel of 374 wild-type kinases (Homo sapiens, UniProt P04049); details: read-out: % Enzyme Activity (relative to DMSO controls), kinase RAF1
T3 construct: purchased Reaction Biology Corporation
T3 sequence (P04049 whole entry): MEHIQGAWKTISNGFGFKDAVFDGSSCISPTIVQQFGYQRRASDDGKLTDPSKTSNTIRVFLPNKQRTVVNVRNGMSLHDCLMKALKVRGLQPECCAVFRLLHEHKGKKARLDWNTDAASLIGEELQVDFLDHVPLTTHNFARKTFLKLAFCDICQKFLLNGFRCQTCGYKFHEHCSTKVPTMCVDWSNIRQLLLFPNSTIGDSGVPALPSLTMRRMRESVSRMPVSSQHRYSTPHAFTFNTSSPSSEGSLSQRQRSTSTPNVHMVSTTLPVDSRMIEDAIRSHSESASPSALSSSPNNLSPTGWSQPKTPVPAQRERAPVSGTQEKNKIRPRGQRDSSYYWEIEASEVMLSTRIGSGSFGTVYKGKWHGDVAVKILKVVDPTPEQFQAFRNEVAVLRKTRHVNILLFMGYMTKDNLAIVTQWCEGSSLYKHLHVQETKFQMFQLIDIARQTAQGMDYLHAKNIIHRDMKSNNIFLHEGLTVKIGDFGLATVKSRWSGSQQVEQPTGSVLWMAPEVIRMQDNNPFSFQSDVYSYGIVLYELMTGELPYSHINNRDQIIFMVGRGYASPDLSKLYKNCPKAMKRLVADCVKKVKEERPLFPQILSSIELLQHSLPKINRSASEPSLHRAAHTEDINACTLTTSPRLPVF

[4] = target: T4, panel of 374 wild-type kinases (Homo sapiens, UniProt P29597); details: read-out: % Enzyme Activity (relative to DMSO controls), kinase TYK2
T4 construct: purchased Reaction Biology Corporation

[5] = target: T5, panel of 374 wild-type kinases (Homo sapiens, UniProt P35968); details: read-out: % Enzyme Activity (relative to DMSO controls), KDR/VEGFR2
T5 construct: purchased Reaction Biology Corporation
T5 sequence (P35968 20-1356): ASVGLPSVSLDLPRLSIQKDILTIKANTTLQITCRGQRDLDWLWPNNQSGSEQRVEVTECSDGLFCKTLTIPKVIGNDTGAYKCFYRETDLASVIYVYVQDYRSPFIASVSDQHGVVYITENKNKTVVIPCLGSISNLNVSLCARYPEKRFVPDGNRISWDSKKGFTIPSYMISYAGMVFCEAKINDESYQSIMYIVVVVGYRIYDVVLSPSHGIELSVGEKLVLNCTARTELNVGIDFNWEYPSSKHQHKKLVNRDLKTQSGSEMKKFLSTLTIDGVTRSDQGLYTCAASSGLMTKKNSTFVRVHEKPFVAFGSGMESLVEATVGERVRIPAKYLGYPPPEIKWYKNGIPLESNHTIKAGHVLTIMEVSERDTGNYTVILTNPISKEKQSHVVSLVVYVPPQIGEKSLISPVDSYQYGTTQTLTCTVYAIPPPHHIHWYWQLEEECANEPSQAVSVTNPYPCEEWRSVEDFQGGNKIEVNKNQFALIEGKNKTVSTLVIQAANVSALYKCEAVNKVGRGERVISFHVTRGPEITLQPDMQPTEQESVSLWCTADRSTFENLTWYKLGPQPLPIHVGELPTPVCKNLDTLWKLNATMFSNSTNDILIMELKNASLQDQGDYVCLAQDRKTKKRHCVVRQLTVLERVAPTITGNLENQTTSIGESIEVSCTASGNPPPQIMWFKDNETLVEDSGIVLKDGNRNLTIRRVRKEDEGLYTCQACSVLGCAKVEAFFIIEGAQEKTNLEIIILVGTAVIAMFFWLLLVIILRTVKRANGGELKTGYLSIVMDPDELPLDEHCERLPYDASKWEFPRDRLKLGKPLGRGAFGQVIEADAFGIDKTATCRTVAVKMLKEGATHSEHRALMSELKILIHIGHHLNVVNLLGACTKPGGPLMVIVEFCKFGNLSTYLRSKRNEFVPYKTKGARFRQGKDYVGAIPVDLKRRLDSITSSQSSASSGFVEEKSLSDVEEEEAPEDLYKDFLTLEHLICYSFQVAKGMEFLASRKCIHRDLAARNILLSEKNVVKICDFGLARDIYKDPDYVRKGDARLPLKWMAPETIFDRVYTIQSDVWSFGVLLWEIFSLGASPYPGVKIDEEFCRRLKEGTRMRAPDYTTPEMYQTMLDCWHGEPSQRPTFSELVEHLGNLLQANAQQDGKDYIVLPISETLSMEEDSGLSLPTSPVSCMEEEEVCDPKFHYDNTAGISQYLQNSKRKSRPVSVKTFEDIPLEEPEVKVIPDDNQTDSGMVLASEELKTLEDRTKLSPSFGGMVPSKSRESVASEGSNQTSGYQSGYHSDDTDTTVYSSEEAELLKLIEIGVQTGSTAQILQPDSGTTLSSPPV

[6] = target: T6, panel of 374 wild-type kinases (Homo sapiens, UniProt P51813); details: read-out: % Enzyme Activity (relative to DMSO controls), BMX/ETK
T6 construct: purchased Reaction Biology Corporation
T6 sequence (P51813 1-675): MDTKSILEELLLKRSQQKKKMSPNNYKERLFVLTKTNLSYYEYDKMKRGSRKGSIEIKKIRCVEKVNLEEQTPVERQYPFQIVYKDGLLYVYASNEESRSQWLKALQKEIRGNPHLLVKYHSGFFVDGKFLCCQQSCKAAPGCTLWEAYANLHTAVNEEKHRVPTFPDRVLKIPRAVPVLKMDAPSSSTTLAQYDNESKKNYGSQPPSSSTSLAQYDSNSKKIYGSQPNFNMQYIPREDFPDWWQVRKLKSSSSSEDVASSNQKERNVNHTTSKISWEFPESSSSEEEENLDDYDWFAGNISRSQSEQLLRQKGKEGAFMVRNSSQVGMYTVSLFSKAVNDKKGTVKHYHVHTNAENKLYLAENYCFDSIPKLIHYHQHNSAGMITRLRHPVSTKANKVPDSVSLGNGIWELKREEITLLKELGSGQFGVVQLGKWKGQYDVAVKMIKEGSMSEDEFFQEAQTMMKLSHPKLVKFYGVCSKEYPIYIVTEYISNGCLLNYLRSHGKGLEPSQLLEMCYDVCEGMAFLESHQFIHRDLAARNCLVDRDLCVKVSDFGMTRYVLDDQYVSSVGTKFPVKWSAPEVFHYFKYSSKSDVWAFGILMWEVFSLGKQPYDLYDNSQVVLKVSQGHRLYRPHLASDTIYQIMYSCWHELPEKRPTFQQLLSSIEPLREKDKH

[7] = target: T7, panel of 374 wild-type kinases (Homo sapiens, UniProt P53778); details: read-out: % Enzyme Activity (relative to DMSO controls), kinase P38g
T7 construct: purchased Reaction Biology Corporation
T7 sequence (P53778 1-367): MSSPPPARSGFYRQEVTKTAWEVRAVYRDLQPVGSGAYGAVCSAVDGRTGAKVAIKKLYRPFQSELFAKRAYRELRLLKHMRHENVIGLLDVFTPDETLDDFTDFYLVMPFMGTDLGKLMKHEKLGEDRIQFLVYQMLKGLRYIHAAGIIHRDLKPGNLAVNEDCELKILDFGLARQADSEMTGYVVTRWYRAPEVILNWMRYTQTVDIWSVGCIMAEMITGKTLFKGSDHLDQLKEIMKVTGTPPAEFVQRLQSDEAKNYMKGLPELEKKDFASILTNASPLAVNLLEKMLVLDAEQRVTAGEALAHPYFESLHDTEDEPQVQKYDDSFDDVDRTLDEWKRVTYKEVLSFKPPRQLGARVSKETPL

[8] = target: T8, panel of 374 wild-type kinases (Homo sapiens, UniProt Q13470); details: read-out: % Enzyme Activity (relative to DMSO controls), kinase TNK1
T8 construct: purchased Reaction Biology Corporation
T8 sequence (Q13470 1-666): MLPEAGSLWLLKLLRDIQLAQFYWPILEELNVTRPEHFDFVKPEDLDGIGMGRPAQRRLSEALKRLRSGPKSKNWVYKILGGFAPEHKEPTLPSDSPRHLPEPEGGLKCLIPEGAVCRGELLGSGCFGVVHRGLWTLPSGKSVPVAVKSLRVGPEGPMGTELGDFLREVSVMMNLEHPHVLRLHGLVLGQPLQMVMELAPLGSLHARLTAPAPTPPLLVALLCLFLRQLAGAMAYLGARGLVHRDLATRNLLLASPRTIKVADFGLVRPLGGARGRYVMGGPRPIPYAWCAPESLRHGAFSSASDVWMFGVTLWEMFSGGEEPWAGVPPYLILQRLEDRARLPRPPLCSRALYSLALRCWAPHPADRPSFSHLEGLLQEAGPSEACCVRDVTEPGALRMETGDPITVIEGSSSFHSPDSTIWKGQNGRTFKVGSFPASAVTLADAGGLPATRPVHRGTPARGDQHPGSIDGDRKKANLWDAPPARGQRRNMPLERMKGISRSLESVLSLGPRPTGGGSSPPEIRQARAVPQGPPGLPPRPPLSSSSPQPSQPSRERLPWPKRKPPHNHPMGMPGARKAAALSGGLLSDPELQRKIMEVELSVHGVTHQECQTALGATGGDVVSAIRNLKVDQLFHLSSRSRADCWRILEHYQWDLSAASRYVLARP

[9] = target: T9, panel of 374 wild-type kinases (Homo sapiens, UniProt Q15303); details: read-out: % Enzyme Activity (relative to DMSO controls), ERBB4/HER4
T9 construct: purchased Reaction Biology Corporation

[10] = target: T10, panel of 374 wild-type kinases (Homo sapiens, UniProt Q16816); details: read-out: % Enzyme Activity (relative to DMSO controls), kinase PHKg1
T10 construct: purchased Reaction Biology Corporation
T10 sequence (Q16816 whole entry): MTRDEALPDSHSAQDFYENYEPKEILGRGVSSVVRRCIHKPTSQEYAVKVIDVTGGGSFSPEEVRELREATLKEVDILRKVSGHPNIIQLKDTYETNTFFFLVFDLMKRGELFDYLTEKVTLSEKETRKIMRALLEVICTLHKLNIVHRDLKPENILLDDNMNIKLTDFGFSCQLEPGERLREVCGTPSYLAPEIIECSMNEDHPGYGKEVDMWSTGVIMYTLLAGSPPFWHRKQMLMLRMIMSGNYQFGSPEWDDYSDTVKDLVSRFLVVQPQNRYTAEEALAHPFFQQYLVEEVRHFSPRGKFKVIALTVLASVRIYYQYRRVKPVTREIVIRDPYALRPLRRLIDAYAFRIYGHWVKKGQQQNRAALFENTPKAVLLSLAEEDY

[11] = target: T11, panel of 374 wild-type kinases (Homo sapiens, UniProt Q9H2X6); details: read-out: % Enzyme Activity (relative to DMSO controls), HIPK2
T11 construct: purchased Reaction Biology Corporation

[12] = target: T12, panel of 374 wild-type kinases (Homo sapiens, UniProt Q9Y2K2); details: read-out: % Enzyme Activity (relative to DMSO controls), kinase SIK3
T12 construct: purchased Reaction Biology Corporation

[13] = target: T13, panel of 374 wild-type kinases (Homo sapiens, UniProt Q9Y6M4); details: read-out: % Enzyme Activity (relative to DMSO controls), CK1g3
T13 construct: purchased Reaction Biology Corporation
T13 sequence (Q9Y6M4 whole entry): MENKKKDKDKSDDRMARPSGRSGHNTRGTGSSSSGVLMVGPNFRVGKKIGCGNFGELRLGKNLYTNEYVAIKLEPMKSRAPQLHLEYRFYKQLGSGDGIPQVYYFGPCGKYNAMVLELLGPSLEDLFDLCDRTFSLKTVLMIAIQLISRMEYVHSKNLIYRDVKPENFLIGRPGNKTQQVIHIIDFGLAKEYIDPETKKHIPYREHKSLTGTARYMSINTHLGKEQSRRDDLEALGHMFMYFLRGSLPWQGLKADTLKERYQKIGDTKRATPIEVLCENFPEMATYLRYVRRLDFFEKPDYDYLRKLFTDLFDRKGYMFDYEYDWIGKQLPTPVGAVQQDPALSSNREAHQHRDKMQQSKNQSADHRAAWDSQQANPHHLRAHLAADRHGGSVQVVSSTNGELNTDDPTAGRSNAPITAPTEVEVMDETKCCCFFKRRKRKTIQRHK

T1 sequence (O43353 whole entry): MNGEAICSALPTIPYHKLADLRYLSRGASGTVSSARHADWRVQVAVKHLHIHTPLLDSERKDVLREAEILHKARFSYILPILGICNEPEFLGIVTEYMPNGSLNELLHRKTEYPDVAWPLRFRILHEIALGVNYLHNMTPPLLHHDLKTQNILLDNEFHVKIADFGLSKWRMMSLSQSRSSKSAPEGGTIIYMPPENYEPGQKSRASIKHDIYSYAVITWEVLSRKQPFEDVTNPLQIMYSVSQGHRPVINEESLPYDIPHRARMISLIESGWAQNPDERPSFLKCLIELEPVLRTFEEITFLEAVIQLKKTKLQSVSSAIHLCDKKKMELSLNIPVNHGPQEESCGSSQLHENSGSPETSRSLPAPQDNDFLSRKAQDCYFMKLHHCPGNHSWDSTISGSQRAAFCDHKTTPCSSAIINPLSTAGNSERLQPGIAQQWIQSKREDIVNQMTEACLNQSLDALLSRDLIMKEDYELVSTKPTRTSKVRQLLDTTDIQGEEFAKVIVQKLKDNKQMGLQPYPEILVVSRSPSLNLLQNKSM

Compound	remaining activity at 5 µM [1]	remaining activity at 5 µM [2]	remaining activity at 5 µM [3]	remaining activity at 5 µM [4]	remaining activity at 5 µM [5]	remaining activity at 5 µM [6]	remaining activity at 5 µM [7]	remaining activity at 5 µM [8]	remaining activity at 5 µM [9]	remaining activity at 5 µM [10]	remaining activity at 5 µM [11]	remaining activity at 5 µM [12]	remaining activity at 5 µM [13]	further results
O=C(Nc1cnn(-c2csc(C(=O)NC3COC3)c2)c1)Nc1ccccc1Cl [Compound 17, 4-(4-(3-(2-chlorophenyl)ureido)-1H-pyrazol-1-yl)-N-(oxetan-3-yl)thiophene-2-carboxamide]	120%	98.2%	87%	95.9%	95.2%	106%	99.4%	100%	105%	102%	102%	92.4%	103%	–
Cc1sc(C(=O)NC2COC2)cc1-n1cc(NC(=O)Nc2c(F)cccc2Cl)cn1 [Compound 27, 4-(4-(3-(2-chloro-6-fluorophenyl)ureido)-1H-pyrazol-1-yl)-5-methyl-N-(oxetan-3-yl)thiophene-2-carboxamide]	–	–	–	–	–	–	–	–	–	–	–	–	–	remaining activity at 10 µM ([1]; 10 uM): 89.3%; remaining activity at 10 µM ([2]; 10 uM): 95%; remaining activity at 10 µM ([3]; 10 uM): 92.6%; remaining activity at 10 µM ([4]; 10 uM): 114%; remaining activity at 10 µM ([5]; 10 uM): 88.2%; remaining activity at 10 µM ([6]; 10 uM): 92.9%; remaining activity at 10 µM ([7]; 10 uM): 90.5%; remaining activity at 10 µM ([8]; 10 uM): 105%; remaining activity at 10 µM ([9]; 10 uM): 95%; remaining activity at 10 µM ([10]; 10 uM): 84%; remaining activity at 10 µM ([11]; 10 uM): 103%; remaining activity at 10 µM ([12]; 10 uM): 86.9%; remaining activity at 10 µM ([13]; 10 uM): 91.3%
O=C(Nc1cnn(-c2csc(C(=O)NC3COC3)c2)c1)Nc1c(F)cccc1Cl [Compound 25, 4-(4-(3-(2-chloro-6-fluorophenyl)ureido)-1H-pyrazol-1-yl)-N-(oxetan-3-yl)thiophene-2-carboxamide]	80.2%	96.5%	92.5%	89.3%	88.3%	96.8%	98.3%	91.5%	102%	91.2%	92.6%	94.5%	92.6%	–
